Experimental findings from ChEMBL document CHEMBL5291721, “A preclinical secondary pharmacology resource illuminates target-adverse drug reaction associations of marketed drugs” (Nat Commun, 2023) are described below.

The target in assay [1] is 5-hydroxytryptamine receptor 2B (Homo sapiens, UniProt P41595). It is filed as functional, cell-based.
The target of assay [2] is D(3) dopamine receptor (Homo sapiens, UniProt P35462).
Assay [3] addresses Prostaglandin G/H synthase 1 (Homo sapiens, UniProt P23219). It is filed as functional.
In assay [4] the target is D(1A) dopamine receptor (Homo sapiens, UniProt P21728).
D(1A) dopamine receptor, sequence (P21728 whole entry): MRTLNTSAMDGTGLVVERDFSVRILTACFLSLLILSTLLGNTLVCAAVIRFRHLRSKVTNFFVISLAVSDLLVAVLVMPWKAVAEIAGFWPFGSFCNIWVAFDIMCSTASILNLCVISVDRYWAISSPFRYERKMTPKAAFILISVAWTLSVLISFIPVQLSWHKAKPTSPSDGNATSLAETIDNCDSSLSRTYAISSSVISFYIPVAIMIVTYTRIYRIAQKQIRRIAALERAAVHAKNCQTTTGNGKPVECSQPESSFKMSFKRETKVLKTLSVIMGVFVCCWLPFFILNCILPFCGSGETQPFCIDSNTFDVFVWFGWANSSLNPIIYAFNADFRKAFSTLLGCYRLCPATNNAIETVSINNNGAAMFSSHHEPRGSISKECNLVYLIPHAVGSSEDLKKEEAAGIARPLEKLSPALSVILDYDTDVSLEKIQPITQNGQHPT
Assay [5] addresses T1, Thromboxane A2 receptor (Homo sapiens, UniProt P21731).
T1 sequence (P21731 whole entry): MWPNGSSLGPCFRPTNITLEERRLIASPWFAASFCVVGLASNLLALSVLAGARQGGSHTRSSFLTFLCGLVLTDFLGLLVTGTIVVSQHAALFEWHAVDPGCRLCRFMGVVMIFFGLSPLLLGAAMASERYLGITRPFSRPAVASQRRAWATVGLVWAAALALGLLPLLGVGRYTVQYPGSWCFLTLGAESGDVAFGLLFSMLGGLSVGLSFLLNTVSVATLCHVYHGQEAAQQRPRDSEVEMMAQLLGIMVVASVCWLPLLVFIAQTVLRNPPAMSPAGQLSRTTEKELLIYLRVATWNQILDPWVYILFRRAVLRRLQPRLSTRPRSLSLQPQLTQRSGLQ
It is filed as functional, cell-based.

For assay [6], the target named is T2, 5-hydroxytryptamine receptor 1A (Homo sapiens, UniProt P08908).
T2 sequence (P08908 whole entry): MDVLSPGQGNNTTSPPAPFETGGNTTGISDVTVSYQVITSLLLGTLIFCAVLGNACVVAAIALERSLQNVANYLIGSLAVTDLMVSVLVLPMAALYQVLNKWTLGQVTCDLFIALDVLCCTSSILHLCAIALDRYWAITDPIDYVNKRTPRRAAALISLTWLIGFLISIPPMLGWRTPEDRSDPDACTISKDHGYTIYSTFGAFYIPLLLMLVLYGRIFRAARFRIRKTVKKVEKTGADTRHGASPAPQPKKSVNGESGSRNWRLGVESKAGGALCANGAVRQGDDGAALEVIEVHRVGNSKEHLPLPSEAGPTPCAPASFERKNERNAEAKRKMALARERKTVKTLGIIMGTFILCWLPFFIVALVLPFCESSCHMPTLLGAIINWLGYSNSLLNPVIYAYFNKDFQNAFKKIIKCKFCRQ

Assay [7] concerns the target Mu-type opioid receptor (Homo sapiens, UniProt P35372).
Assay [8] concerns the target T3, Adenosine receptor A3 (Homo sapiens, UniProt P0DMS8).
T3 sequence (P0DMS8 whole entry): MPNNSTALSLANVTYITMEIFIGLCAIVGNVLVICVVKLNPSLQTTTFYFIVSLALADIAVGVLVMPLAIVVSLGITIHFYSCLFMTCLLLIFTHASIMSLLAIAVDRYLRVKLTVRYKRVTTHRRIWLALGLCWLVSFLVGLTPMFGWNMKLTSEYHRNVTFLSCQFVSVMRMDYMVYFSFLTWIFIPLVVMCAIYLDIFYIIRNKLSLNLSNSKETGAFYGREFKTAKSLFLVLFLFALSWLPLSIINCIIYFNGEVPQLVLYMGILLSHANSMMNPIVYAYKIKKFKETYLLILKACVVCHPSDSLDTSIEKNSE

For assay [9], the target named is Prothrombin (Homo sapiens, UniProt P00734). The class given is functional.
Assay [10] deals with 3',5'-cyclic-AMP phosphodiesterase 4A (Homo sapiens, UniProt P27815). It is filed as functional.
3',5'-cyclic-AMP phosphodiesterase 4A, sequence (P27815 whole entry): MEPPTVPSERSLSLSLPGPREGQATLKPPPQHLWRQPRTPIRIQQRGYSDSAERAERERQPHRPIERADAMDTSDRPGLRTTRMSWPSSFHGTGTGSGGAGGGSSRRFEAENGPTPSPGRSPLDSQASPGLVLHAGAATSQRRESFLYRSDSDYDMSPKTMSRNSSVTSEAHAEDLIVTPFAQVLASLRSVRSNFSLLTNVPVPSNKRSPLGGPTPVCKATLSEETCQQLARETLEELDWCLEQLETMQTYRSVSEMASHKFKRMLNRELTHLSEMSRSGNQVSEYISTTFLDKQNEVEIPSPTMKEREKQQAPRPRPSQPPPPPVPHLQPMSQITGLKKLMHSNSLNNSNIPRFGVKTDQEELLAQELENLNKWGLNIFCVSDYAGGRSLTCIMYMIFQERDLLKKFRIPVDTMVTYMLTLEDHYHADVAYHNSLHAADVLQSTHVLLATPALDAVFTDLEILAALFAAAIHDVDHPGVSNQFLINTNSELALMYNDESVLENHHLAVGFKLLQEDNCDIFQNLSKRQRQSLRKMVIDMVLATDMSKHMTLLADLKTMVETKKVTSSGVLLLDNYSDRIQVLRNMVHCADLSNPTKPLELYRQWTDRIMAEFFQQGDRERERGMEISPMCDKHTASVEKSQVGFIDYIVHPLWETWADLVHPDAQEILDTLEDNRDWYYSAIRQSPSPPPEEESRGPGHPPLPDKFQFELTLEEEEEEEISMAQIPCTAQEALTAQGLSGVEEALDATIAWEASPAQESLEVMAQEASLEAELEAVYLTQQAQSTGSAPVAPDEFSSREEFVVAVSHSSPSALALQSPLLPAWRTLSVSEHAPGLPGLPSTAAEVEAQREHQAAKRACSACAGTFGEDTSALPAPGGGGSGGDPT
For assay [11], the target named is T4, Amine oxidase [flavin-containing] A (Homo sapiens, UniProt P21397).
T4 sequence (P21397 whole entry): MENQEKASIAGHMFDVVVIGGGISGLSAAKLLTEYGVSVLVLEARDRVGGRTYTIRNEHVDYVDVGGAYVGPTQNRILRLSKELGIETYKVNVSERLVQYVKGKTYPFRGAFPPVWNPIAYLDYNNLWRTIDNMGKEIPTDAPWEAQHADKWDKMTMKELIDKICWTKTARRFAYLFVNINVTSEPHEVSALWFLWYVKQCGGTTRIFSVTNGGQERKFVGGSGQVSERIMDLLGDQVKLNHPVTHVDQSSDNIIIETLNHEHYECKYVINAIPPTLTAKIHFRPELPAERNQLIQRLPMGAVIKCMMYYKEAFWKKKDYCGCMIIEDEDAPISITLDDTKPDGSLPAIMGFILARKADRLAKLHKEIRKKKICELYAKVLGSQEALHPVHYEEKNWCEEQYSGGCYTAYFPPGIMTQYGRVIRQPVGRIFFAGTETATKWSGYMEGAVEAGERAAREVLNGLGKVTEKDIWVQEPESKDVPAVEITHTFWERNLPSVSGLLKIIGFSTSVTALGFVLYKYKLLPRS
The class given is functional.

The target in assay [12] is Histamine H3 receptor (Homo sapiens, UniProt Q9Y5N1).
Histamine H3 receptor, sequence (Q9Y5N1 whole entry): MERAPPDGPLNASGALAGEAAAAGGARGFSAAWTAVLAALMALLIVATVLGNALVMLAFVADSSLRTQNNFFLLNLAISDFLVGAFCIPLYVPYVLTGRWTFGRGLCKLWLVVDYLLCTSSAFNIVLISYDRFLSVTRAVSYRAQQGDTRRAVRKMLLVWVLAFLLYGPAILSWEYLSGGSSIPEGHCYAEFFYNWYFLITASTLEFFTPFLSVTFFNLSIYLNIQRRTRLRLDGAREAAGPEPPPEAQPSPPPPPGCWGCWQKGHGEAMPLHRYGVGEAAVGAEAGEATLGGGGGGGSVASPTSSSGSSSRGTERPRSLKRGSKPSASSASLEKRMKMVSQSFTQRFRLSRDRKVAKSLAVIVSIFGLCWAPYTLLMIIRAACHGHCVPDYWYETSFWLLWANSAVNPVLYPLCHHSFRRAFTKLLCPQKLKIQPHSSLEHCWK

The structures appear in SMILES notation.
Further: assay procedure not described here.

Prostaglandin G/H synthase 1, sequence (P23219 whole entry): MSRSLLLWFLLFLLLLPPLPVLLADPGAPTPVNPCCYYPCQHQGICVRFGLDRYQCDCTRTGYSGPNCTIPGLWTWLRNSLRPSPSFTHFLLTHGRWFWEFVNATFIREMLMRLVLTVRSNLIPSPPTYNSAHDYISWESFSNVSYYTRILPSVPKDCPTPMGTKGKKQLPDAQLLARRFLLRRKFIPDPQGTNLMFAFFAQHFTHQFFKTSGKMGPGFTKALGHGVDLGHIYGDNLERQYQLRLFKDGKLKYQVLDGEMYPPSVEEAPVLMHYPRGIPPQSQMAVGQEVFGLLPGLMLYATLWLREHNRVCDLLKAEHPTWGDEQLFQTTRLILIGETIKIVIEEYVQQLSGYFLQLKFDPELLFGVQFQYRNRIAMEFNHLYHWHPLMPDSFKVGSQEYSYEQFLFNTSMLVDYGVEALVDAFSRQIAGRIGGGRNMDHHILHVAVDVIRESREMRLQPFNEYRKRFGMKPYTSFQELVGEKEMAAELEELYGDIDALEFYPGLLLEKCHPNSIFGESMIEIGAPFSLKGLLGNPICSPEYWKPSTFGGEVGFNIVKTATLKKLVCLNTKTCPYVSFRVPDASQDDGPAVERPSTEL
D(3) dopamine receptor, sequence (P35462 whole entry): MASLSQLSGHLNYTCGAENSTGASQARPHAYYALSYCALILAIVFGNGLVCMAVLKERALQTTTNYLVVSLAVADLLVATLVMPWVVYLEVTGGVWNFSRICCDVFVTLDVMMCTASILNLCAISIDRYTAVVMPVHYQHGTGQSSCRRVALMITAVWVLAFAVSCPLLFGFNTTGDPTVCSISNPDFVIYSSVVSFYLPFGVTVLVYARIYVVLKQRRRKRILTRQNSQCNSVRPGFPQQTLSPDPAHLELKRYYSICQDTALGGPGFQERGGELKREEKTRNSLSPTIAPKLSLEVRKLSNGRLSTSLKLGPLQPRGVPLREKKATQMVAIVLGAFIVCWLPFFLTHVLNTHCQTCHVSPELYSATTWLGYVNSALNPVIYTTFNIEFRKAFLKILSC
5-hydroxytryptamine receptor 2B, sequence (P41595 whole entry): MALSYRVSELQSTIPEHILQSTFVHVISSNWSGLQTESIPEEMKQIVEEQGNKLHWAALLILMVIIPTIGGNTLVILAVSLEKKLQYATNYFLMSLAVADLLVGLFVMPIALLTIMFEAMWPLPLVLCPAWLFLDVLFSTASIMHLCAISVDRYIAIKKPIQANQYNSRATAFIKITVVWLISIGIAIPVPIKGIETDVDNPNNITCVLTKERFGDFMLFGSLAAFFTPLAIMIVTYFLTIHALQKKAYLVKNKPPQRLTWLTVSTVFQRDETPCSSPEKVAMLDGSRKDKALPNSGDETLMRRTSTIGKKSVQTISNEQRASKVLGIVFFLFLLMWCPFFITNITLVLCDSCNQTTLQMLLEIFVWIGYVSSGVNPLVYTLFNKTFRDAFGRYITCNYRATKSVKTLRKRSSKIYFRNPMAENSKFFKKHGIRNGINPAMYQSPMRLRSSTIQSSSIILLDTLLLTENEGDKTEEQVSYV
Mu-type opioid receptor, sequence (P35372 whole entry): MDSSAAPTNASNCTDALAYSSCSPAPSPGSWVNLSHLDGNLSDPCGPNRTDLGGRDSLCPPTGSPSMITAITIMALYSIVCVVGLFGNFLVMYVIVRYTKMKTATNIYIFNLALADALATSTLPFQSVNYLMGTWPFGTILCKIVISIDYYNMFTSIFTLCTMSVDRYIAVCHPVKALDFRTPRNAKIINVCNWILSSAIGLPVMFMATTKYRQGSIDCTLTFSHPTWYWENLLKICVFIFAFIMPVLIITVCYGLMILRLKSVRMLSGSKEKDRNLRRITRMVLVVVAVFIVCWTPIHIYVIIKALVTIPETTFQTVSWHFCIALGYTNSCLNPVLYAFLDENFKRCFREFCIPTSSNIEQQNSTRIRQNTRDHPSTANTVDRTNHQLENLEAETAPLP

Broadly, the AC50 is the midpoint of the concentration-response curve, whichever way the signal moves. A high value points to weaker potency. Turning to `CC(C1=C(CCN(C)C)Cc2ccccc21)c1ccccn1` (configuration not stated), the concentration at half-maximal activity (AC50) is above 30 µM in [1]; 6.44 µM in assay [2]; above 30 µM in [3]; 6.52 µM in assay [4]; above 30 µM in [5]; 8.78 µM in assay [6]. The AC50 was 7.04 µM in assay [7]; above 30 µM in [8]; above 30 µM in assay [9]; above 30 µM in assay [10]; above 30 µM in assay [11]; 13.2 µM in [12].
With `CC(=O)OCC[N+](C)(C)C` [ACETYLCHOLINE], the AC50 in assay [1] is above 30 µM; in assay [2] it was above 30 µM; in assay [3], above 30 µM; in [4] it was above 30 µM; in assay [5], 0.34 µM; in [6], above 30 µM. Besides, the AC50 in assay [7], in assay [9], in assay [10], in assay [11] and in [12] was above 30 µM throughout.
Regarding `C[C@H](N)C(=O)O` [ALANINE], the concentration at half-maximal activity (AC50) in assay [1], in assay [2], in assay [3], in assay [4], in assay [5] and in assay [6] was above 30 µM in each case. Further, the AC50 in [7], in assay [8], in assay [9], in assay [10], in [11] and in assay [12] was above 30 µM each time.
With `O=C1c2c(O)cccc2Cc2cccc(O)c21` [ANTHRALIN], the AC50 in assay [1] is above 30 µM; in assay [2], above 30 µM; in assay [3], 0.875 µM; in [4], above 30 µM; in [5], above 30 µM; in assay [6], above 30 µM. Besides, the AC50 was above 30 µM in [7]; above 3 µM in assay [8]; above 30 µM in assay [9]; 0.262 µM in assay [10]; above 30 µM in assay [11]; 28.9 µM in assay [12].
Take `C[C@@H](O)[C@H]1C(=O)N2C(C(=O)[O-])=C(SC3Cn4cnc[n+]4C3)[C@H](C)[C@H]12` (some centres not stated) [BIAPENEM]: the AC50 in assay [1], in [2], in assay [3], in [4], in assay [5] and in assay [6] was above 30 µM throughout. The AC50 in assay [7], in assay [9], in assay [10], in [11] and in [12] was above 30 µM each time.
As for `CCCCOc1ccc(CC(=O)NO)cc1` [BUFEXAMAC], the AC50 in assay [1], in [2], in [3], in [4], in assay [5] and in assay [6] was above 30 µM in each case. For the same molecule, the concentration at half-maximal activity (AC50) in assay [7] was above 30 µM; in assay [8], above 30 µM; in assay [9] it was above 30 µM; in [10], 0.53 µM; in assay [11], above 30 µM; in [12] it was above 30 µM.
For the molecule `Oc1c(I)cc(Cl)c2cccnc12` [CLIOQUINOL], the half-maximal activity concentration (AC50) in assay [1] is above 30 µM; in [2] it was above 10 µM; in assay [3] it was above 30 µM; in assay [4], above 30 µM; in assay [5], above 30 µM; in [6] it was above 30 µM. Moreover, the half-maximal activity concentration (AC50) in [7], in assay [9], in assay [10], in assay [11] and in assay [12] was above 30 µM throughout.
For the molecule `Cc1onc(-c2c(Cl)cccc2Cl)c1C(=O)N[C@@H]1C(=O)N2[C@@H]1SC(C)(C)[C@@H]2C(=O)O` [DICLOXACILLIN], the AC50 in assay [1], in assay [2], in assay [3], in [4], in [5] and in assay [6] was above 30 µM in each case. The concentration at half-maximal activity (AC50) in assay [7], in [8], in [9], in assay [10], in assay [11] and in assay [12] was above 30 µM in each case.
As for `CCCCC/C=C\C/C=C\C/C=C\CCCCC(=O)O` [GAMOLENIC ACID], the concentration at half-maximal activity (AC50) in [1] was above 30 µM; in assay [2] it was above 30 µM; in assay [3], 4.91 µM; in [4], above 30 µM; in assay [5] it was above 30 µM; in [6] it was above 30 µM. Moreover, the concentration at half-maximal activity (AC50) in [7], in assay [8], in [9], in assay [10], in assay [11] and in [12] was above 30 µM each time.
On to `CC(N)CCCC(C)(C)O` (configuration not stated) [HEPTAMINOL], for which the half-maximal activity concentration (AC50) in [1], in [2], in assay [3], in [4], in assay [5] and in [6] was above 30 µM throughout. Further, the concentration at half-maximal activity (AC50) in [7], in assay [8], in assay [9], in [10], in assay [11] and in [12] was above 30 µM throughout.
Regarding `CC[N+](C)(CC)CCOC(=O)C1c2ccccc2Oc2ccccc21` [METHANTHELINE], the AC50 in assay [1], in assay [2], in assay [3], in assay [4], in [5] and in assay [6] was above 30 µM in each case. Moreover, the AC50 in assay [7], in assay [8], in assay [9], in [10], in assay [11] and in assay [12] was above 30 µM in each case.
For `CCN(CC)CCOC(=O)C(Cc1cccc2ccccc12)CC1CCCO1` (configuration not stated) [NAFRONYL], the AC50 in [1] is above 30 µM; in assay [2] it was 10.1 µM; in assay [3], above 30 µM; in assay [4] it was 23.5 µM; in [5], above 30 µM; in assay [6], above 30 µM. Further, the AC50 in assay [7] was 7.16 µM; in [8], above 30 µM; in assay [9], above 30 µM; in [10] it was above 30 µM; in assay [11], above 30 µM; in assay [12], above 30 µM.
On to `COCCCOc1ccnc(C[S+]([O-])c2nc3ccccc3[nH]2)c1C` (configuration not stated) [RABEPRAZOLE], for which the half-maximal activity concentration (AC50) in assay [1] was above 30 µM; in assay [2], above 30 µM; in assay [3] it was 0.71 µM; in assay [4], above 30 µM; in [5], above 30 µM; in assay [6], 12.8 µM. In addition, the concentration at half-maximal activity (AC50) in assay [7] was 7.93 µM; in assay [9] it was above 30 µM; in assay [10], above 30 µM; in assay [11], above 30 µM; in [12], above 30 µM.
